Broadly, the IC50 is the concentration that inhibits the measured activity by half.

One assay relates to LNCap. The experiment in a line: In vitro cell growth assay (MTS), LNCap. In kind it is cell-based. The settings on record: LNCaP, 72 h, human prostate line, three days after drug treatment.
The next assay deals with PI3K-alpha (Homo sapiens, UniProt P42336). The experiment in a line: PI3K-alpha fluorescence polarization assay. In kind it is biochemical. Conditions: 20 μM PIP2, 25 μM ATP; read-out: PI3Kα IC50. An outline of the steps: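 PIP2 (diC8) and ATP substrate with PI3K in 20 mM HEPES pH 7.5, 2 mM MgCl2, 0.05% CHAPS, 0.01% βME; 1% DMSO final; 30–60 min reaction. Stopped with EDTA plus GST-GRP (70 nM) and TAMRA probe (10 nM); FP (mP) read after 30–90 min, with no-enzyme controls.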
In general terms: In fluorescence polarisation assays a small probe gives low polarisation when free and higher when bound to something large.

In the next assay the target is PI3K-gamma (Homo sapiens, UniProt P48736). As to the kind of experiment: PI3K-gamma fluorescence polarization assay. In kind it is biochemical. The settings on record: 20 μM PIP2, 25 μM ATP; read-out: PI3Kγ IC50. The procedure:
The reaction buffer was 20 mM HEPES, pH 7.5, 2 mM MgCl2, 0.05% CHAPS; and 0.01% βME (added fresh). The stop/detection buffer was 100 mM HEPES, pH 7.5, 4 mM EDTA, 0.05% CHAPS; ATP 20 mM in water; PIP2 (diC8, Echelon, Salt Lake City Utah cat #P-4508) 1 mM in water (MW=856.5). The GST-GRP was 1.75 mg/mL or 1.4 mg/mL in 10% glycerol. The red detector (TAMRA) was 2.5 μM. Nunc 384-well black polypropylene fluorescent plates were used for PI3K assays.
The assay is run by placing 5 μL of diluted enzyme per well, then 5 μL of diluted compound (or 9.5 μL enzyme then 0.5 μL compound in DMSO) is added and mixed. Then, 10 μL substrate is added to start the reaction. The samples are incubated 30-60 minutes, then the reaction is stopped by adding 20 μL stop/detector mix. PI3K is diluted with reaction buffer (e.g., 5 μL or 7.5 μL PI3K into 620 μL reaction buffer), and 5 μL of diluted enzyme is used per well. A 5 μL portion of reaction buffer or of drug diluted in buffer (e.g., 4 μL/100 so final DMSO is 1% in reaction) is added to each. Pipetting up and down mixes the samples. Alternatively, the enzyme can be diluted to 1215 μL. In this case 9.8 μL is added per well and 0.2 μL compound is added in DMSO.
To prepare 1 mL of substrate solution, 955 μL reaction buffer, 40 μL PIP2, and 2.5 μL ATP are mixed. 10 μL of substrate is added to each well to start the reaction. […] The stop/detector mix is prepared by mixing 4 μL red detector and 1.6 μL or 2.0 μL GST-GRP with 1 mL stop buffer, which results in 10 nM probe and 70 nM GST-GRP. 20 μL of the stop/detector mix is added to each well to stop the reaction. The plates are read after 30-90 minutes keeping the red probe solutions dark. For the zero time point, stop/detector mix is added to the enzyme just before adding substrate. For an extra control, stop/detector mix is added to buffer (no enzyme) and substrate or to just buffer (no substrate). […] The recommended reaction has 0.06 μL per 20 μL (0.015 μg/20 μL) or 0.01125 μg/15 μL or 0.75 μg/mL.
Plates are read on machines with filters for TAMRA. The units are mP with no enzyme controls reading app 190-220 mP units. Fully active enzyme reduces fluorescence polarization down to 70-100 mP after 30 minutes. An active compound raises the mP values halfway to control or to 120-150 mP units.

Another assay concerns the target mTOR (Homo sapiens, UniProt P42345). As to the kind of experiment: mTOR enzyme assay (DELFIA, purified FLAG-TOR, His6-S6K substrate). Type of assay: biochemical. Details: FLAG. The settings on record: 100 μM ATP, 2 hours.
Another assay concerns MDA468. As to the kind of experiment: In vitro cell growth assay (MTS), MDA468. In kind it is cell-based. Conditions: 72 h, human breast line MDA468, three days after drug treatment, read-out: MDA IC50.

Sequence of PI3K-alpha (P42336 whole entry, species assumed): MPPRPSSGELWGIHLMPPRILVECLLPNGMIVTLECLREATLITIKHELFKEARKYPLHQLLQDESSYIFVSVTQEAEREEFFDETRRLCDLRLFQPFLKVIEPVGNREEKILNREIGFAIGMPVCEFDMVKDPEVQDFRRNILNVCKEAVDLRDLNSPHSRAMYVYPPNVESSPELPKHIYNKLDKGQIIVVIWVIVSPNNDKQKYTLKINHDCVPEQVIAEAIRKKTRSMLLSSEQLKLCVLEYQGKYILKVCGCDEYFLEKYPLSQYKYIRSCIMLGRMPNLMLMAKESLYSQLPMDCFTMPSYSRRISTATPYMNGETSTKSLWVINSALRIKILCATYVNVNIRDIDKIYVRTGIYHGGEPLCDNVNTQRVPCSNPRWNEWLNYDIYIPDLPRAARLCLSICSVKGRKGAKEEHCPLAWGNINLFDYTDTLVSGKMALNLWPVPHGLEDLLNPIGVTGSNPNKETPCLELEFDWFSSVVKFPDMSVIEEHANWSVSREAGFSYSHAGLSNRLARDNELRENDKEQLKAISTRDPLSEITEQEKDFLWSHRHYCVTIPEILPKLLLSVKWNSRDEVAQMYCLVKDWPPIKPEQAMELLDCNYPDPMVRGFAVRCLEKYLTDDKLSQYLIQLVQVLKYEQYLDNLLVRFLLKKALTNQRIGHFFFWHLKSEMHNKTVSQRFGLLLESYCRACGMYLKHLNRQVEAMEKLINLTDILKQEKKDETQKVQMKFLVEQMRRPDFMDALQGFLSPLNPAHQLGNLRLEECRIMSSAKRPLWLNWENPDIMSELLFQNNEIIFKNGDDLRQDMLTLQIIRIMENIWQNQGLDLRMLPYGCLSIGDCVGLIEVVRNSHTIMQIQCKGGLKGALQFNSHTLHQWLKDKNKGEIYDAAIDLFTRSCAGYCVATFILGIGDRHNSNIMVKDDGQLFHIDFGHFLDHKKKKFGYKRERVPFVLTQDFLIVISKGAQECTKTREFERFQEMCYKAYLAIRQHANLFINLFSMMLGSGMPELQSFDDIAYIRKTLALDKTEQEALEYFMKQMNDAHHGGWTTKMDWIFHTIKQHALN
Sequence of PI3K-alpha (P27986 whole entry partner, species assumed): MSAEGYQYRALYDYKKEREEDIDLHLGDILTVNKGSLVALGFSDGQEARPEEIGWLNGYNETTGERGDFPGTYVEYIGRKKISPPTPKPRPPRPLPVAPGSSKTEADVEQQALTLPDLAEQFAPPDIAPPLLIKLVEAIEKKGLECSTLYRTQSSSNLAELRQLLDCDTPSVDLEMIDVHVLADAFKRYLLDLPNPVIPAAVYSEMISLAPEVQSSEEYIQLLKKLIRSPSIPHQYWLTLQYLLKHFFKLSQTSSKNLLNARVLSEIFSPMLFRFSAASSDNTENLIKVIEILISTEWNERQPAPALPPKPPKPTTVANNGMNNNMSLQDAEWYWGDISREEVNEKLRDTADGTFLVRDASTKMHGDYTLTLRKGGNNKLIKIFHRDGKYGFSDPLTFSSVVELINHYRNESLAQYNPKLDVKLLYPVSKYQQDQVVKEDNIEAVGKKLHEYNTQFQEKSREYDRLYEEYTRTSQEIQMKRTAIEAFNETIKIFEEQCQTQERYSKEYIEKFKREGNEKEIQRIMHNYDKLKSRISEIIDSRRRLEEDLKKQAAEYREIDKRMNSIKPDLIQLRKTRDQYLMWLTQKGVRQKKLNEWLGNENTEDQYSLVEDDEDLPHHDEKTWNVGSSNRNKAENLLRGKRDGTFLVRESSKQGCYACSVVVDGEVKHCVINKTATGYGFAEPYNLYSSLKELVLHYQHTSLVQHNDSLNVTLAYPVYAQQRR
Sequence of PI3K-gamma (P48736 whole entry, species assumed): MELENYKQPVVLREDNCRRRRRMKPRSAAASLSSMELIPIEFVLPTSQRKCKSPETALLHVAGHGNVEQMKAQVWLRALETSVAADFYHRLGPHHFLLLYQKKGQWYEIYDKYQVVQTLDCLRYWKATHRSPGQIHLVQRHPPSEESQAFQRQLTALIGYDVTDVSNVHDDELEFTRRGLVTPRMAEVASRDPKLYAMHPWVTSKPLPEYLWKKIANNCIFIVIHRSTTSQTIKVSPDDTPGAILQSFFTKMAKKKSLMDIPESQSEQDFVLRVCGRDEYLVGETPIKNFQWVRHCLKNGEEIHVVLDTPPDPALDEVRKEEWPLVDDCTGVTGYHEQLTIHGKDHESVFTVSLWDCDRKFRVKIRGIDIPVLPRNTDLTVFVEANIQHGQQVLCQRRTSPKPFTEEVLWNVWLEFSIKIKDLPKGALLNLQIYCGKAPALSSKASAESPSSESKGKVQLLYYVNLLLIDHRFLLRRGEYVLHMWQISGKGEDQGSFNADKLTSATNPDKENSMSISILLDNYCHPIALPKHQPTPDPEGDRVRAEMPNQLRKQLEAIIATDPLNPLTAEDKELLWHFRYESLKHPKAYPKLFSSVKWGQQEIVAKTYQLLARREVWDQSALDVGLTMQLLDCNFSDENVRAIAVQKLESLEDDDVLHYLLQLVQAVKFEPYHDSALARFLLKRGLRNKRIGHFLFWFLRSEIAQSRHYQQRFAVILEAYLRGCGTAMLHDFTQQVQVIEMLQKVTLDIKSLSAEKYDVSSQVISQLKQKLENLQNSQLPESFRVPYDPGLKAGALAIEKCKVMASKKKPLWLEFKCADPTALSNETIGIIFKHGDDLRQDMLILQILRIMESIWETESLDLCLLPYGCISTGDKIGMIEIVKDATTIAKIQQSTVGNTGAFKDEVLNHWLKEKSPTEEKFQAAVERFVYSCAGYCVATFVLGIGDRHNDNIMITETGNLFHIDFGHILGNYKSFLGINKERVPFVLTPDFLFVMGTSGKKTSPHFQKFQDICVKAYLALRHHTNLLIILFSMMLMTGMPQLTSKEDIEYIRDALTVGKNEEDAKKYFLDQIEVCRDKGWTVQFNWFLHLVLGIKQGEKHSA
Sequence of mTOR (P42345 1360-2549 limits assumed): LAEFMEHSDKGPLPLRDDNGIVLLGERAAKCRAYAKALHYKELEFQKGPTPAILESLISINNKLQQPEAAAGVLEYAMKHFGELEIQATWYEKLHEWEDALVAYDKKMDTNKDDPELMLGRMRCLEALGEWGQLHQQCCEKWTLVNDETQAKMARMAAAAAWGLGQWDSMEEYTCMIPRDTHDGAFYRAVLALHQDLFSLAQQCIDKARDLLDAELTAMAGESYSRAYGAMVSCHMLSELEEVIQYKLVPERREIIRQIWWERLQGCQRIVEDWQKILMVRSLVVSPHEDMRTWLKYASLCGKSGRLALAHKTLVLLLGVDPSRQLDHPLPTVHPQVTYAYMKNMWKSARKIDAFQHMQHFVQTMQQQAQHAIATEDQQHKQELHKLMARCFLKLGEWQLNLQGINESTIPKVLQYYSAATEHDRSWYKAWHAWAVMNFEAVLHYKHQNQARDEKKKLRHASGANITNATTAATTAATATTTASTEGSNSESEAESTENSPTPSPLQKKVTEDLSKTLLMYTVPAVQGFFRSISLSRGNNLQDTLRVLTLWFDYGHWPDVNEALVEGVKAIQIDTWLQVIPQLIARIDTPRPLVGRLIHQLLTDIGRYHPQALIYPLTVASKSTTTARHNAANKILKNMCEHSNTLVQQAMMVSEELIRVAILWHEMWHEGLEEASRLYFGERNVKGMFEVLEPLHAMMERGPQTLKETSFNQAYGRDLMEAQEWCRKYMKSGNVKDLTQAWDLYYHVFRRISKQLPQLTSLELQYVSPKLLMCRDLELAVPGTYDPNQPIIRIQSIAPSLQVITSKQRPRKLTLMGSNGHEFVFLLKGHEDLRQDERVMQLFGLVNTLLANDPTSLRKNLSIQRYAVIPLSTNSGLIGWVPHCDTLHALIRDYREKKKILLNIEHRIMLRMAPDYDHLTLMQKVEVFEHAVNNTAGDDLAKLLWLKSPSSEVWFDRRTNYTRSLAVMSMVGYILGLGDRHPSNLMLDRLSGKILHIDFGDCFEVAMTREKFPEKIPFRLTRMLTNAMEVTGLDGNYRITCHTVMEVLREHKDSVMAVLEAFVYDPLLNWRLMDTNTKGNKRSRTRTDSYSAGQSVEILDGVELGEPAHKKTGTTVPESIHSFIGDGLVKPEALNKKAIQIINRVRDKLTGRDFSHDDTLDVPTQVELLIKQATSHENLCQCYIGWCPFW

For `C[C@@H]1CN(c2cc(N3C4CCC3COC4)nc(-c3ccc(NC(=O)Nc4ccncc4)cc3)n2)C[C@H](C)O1` [1-(4-{4-[(2R,6S)-2,6-dimethylmorpholin-4-yl]-6-(3-oxa-8-azabicyclo[3.2.1]oct-8-yl)pyrimidin-2-yl}phenyl)-3-pyridin-4-ylurea], the IC50 in the assay with LNCap amounted to 50 nM; on PI3K-alpha, 1340 nM; at PI3K-gamma, 5370 nM; against mTOR, 2.6 nM; in the assay on MDA468, 280 nM.

With `C[C@@H]1CN(c2cc(N3C4CCC3COC4)nc(-c3ccc(NC(=O)Nc4ccc(C(=O)N5CCN(C)CC5)cc4)cc3)n2)C[C@H](C)O1` [1-(4-{4-[(2R,6S)-2,6-dimethylmorpholin-4-yl]-6-(3-oxa-8-azabicyclo[3.2.1]oct-8-yl)pyrimidin-2-yl}phenyl)-3-{4-[(4-methylpiperazin-1-yl)carbonyl]phenyl}urea], the IC50 was ≤ 0.8 nM in the assay on LNCap; 180 nM at PI3K-alpha; 1030 nM at PI3K-gamma; 3.55 nM against mTOR; 0.8 nM in the assay with MDA468.

In the case of `CN1CCN(c2ccc(NC(=O)Nc3ccc(-c4nc(N5C6CCC5COC6)c(Cl)c(N5C6CCC5COC6)n4)cc3)cc2)CC1` [1-[4-(5-chloro-4,6-di-3-oxa-8-azabicyclo[3.2.1]oct-8-ylpyrimidin-2-yl)phenyl]-3-[4-(4-methylpiperazin-1-yl)phenyl]urea], the IC50 was 65 nM in the assay with LNCap; 998 nM at PI3K-alpha; 1020 nM at PI3K-gamma; 0.505 nM against mTOR; 210 nM in the assay on MDA468.

On to `CC(C)Nc1cc(N2C3CCC2COC3)nc(-c2ccc(NC(=O)Nc3ccc(CN4CCCC4)cc3)cc2)n1` [1-(4-{4-[(1-methylethyl)amino]-6-(3-oxa-8-azabicyclo[3.2.1]oct-8-yl)pyrimidin-2-yl}phenyl)-3-[4-(pyrrolidin-1-ylmethyl)phenyl]urea], for which the IC50 is 110 nM with LNCap; 1090 nM at PI3K-alpha; 3580 nM at PI3K-gamma; 2.95 nM on mTOR; 80 nM with MDA468.

Regarding `O=C(Nc1ccncc1)Nc1ccc(-c2nc(N3C4CCC3COC4)cc(N3C[C@H]4C[C@@H]3CO4)n2)cc1` [1-(4-{4-[(1R,4R)-2-oxa-5-azabicyclo[2.2.1]hept-5-yl]-6-(3-oxa-8-azabicyclo[3.2.1]oct-8-yl)pyrimidin-2-yl}phenyl)-3-pyridin-4-ylurea], the IC50 in the assay with LNCap is 90 nM; at PI3K-alpha, 1890 nM; on PI3K-gamma, 7430 nM; against mTOR, 2.25 nM; in the assay on MDA468, 110 nM.

On to `C[C@@H]1COCCN1c1cc(N2C3CCC2COC3)nc(-c2ccc(NC(=O)Nc3cccnc3)cc2)n1` [1-(4-{4-[(3R)-3-methylmorpholin-4-yl]-6-(3-oxa-8-azabicyclo[3.2.1]oct-8-yl)pyrimidin-2-yl}phenyl)-3-pyridin-3-ylurea], for which the IC50 with LNCap was 20 nM; at PI3K-alpha it was 1060 nM; at PI3K-gamma, 7470 nM; against mTOR, 0.77 nM; in the assay on MDA468, 80 nM.

On to `C[C@@H]1COCCN1c1cc(N2C3CCC2COC3)nc(-c2ccc(NC(=O)Nc3ccc(N4CCN(C)CC4)nc3)cc2)n1` [1-(4-{4-[(3R)-3-methylmorpholin-4-yl]-6-(3-oxa-8-azabicyclo[3.2.1]oct-8-yl)pyrimidin-2-yl}phenyl)-3-[6-(4-methylpiperazin-1-yl)pyridin-3-yl]urea], for which the IC50 in the assay on LNCap stood at 3.5 nM; at PI3K-alpha it was 1100 nM; at PI3K-gamma it was 2980 nM; against mTOR it was 2.5 nM; with MDA468 it was 8 nM.

Turning to `C[C@@H]1COCCN1c1cc(N2C3CCC2COC3)nc(-c2ccc(NC(=O)Nc3ccc(CN4CCN(C)CC4)cc3)cc2)n1` [1-(4-{4-[(3R)-3-methylmorpholin-4-yl]-6-(3-oxa-8-azabicyclo[3.2.1]oct-8-yl)pyrimidin-2-yl}phenyl)-3-{4-[(4-methylpiperazin-1-yl)methyl]phenyl}urea], the IC50 in the assay with LNCap was determined as 6 nM; on PI3K-alpha, 1300 nM; on PI3K-gamma, 8480 nM; at mTOR it was 1.2 nM; in the assay with MDA468, 12 nM.

The values are drawn from patent US8835429B2, “Pyrimidine compounds, their use as mTOR kinase and Pl3 kinase inhibitors, and their syntheses” (Wyeth LLC, priority 2009, dated 2014).
